Assay results published in US10213415B2, “Compounds as opioid receptor modulators” (JANSSEN PHARMACEUTICA NV, priority 2004, dated 2019).
Where two headings read alike, the source gives them in different places.

How the values were obtained:
[1] = molecular target: T1, delta opioid receptor (NG108-15 cell membranes) (Mus musculus, UniProt P32300); assay: Delta Opioid Receptor Functional Assay: [35S]GTPγS Binding in NG108-15 Cell Membranes, Version 2; assay type: biochemical; conditions: for DOR GTP-binding Assay v2 (% I): % inhibition of agonist-stimulated GTPγS binding
T1 construct: NG108-15 cell membranes were purchased from Applied Cell Sciences (Rockville, Md.); host or cells: NG108-15 cells (membranes purchased)
Procedure, shortened: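 SPA-coupled NG108-15 membranes (37.5 μg/ml) were incubated with 0.1 nM [35S]GTPγS and 100 μM GDP in Tris pH 7.6, 5 mM MgCl2, 100 mM NaCl, with increasing agonist concentrations; 10 μM unlabeled GTPγS defined nonspecific binding. EC50 from % of basal; inhibition as % of 1 μM SNC80 stimulation.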

[2] = molecular target: T2, mu opioid receptor (CHO-hMOR cell membranes) (Homo sapiens, UniProt P35372); assay: Mu Opioid Receptor Functional Assay: [35S]GTPγS Binding in CHO-hMOR Cell Membranes, Versions 1 and 2; assay type: biochemical; conditions: for MOR GTP binding assay_v2 (% I): version 2, % inhibition of agonist-stimulated GTPγS binding; for EC50: version 2, read-out: MOR GTP binding assay v2 EC50
T2 construct: purchased Receptor Biology, Inc. (Baltimore, Md.); host or cells: CHO cells (recombinant expression)
Procedure, shortened: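 Agonist-stimulated [35S]GTPγS (0.5 nM) binding measured by SPA in human MOR CHO membranes, buffer pH 7.6 with 100 mM NaCl, 5 mM MgCl2. Antagonist mode: % inhibition of stimulation by 1 μM SNC80; agonist mode: EC50 fitted. Basal binding without agonist, non-specific with 10 μM cold GTPγS.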

[3] = NG108-15 cell membranes, [35S]GTPγS, version 2, read-out: DOR GTP-binding Assay_v2_ EC50
[4] = NG108-15 cell membranes, version 2

T1 sequence (P32300 whole entry): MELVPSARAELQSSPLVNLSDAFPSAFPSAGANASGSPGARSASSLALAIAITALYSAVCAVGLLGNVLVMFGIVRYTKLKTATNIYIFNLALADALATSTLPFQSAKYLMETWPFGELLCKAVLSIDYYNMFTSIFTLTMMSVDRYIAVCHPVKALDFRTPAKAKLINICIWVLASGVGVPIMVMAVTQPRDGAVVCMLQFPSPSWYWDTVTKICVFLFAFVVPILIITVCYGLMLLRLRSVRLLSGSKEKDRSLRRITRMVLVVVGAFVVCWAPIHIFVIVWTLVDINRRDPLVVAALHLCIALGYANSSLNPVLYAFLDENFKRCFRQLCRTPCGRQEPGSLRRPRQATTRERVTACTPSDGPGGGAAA
T2 sequence (P35372 whole entry): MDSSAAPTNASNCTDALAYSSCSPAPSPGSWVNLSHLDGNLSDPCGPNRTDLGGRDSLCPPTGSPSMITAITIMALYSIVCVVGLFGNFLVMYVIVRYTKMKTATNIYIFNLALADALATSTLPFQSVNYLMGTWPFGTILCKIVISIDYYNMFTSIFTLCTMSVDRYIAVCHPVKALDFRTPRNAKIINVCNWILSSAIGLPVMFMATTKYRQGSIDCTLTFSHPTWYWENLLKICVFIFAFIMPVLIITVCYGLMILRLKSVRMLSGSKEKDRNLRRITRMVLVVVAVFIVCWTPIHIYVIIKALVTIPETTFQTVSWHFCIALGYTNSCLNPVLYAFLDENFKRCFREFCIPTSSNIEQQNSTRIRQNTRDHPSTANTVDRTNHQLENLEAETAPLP

Row | SMILES | EC50 [1, 3] [nM] | DOR GTP-binding Assay v2 (% I) [1, 4] [%] | MOR GTP binding assay_v2 (% I) [2] [%] | EC50 [2] [nM] | EC50 [1] [nM] | MOR GTP binding assay_v1 (% I) ([2]; version 1, % inhibition of agonist-stimulated GTPγS binding) [%] | MOR GTP assay_v1 % of Basal ([2]; version 1, basal binding = 100%) [%]
1 | COc1ccc(CN(C(=O)[C@@H](N)Cc2ccc(C(N)=O)cc2)[C@@H](C)c2nc(-c3ccccc3)c[nH]2)cc1C(=O)O [Cpd 4] | 46 | 66.12 | – | – | – | – | –
2 | COc1ccc(CN(Cc2nc(-c3ccccc3)c[nH]2)C(=O)[C@@H](N)Cc2ccc(C(N)=O)cc2)cc1C(=O)O [Cpd 5] | > 10000 | 47.12 | 7.87 | 71 | – | – | –
3 | COc1ccc(CN(C(=O)[C@@H](N)Cc2c(C)cc(C(N)=O)cc2C)[C@@H](C)c2nc(-c3ccccc3)c[nH]2)cc1-c1nnn[nH]1 [Cpd 8] | > 10000 | 94.03 | 13.95 | 1.2 | – | – | –
4 | COC(=O)c1cc(CN(C(=O)[C@@H](N)Cc2c(C)cc(C(N)=O)cc2C)[C@@H](C)c2nc(-c3ccccc3)c[nH]2)ccc1OC [Cpd 17] | 1.3 | 68.64 | 8.71 | 2.5 | – | – | –
5 | COc1ccc(CN(C(=O)[C@@H](N)Cc2c(C)cc(C(N)=O)cc2C)[C@@H](C)c2nc(-c3ccccc3)c[nH]2)cc1C(=O)O [Cpd 18] | – | 100 | 7.54 | 1 | > 10000 | – | –
6 | Cc1cc(O)cc(C)c1C[C@H](N)C(=O)N(Cc1cccc(C(=O)O)c1)[C@@H](C)c1nc(-c2ccccc2)c[nH]1 [Cpd 48] | > 10000 | 108.36 | 24.53 | 2.2 | – | – | –
7 | Cc1cc(C(N)=O)cc(C)c1C[C@H](N)C(=O)N(Cc1ccc(C(=O)O)cc1)[C@@H](C)c1nc(-c2ccccc2)c[nH]1 [Cpd 50] | 1.4 | 60.27 | – | – | – | – | –
8 | COc1ccc(CN(C(=O)[C@@H](N)Cc2c(C)cc(C(N)=O)cc2C)[C@@H](C)c2nc(-c3ccccc3)c[nH]2)cc1OC [Cpd 75] | 1.4 | 65.35 | – | – | – | – | –
9 | CC(C)N(Cc1nc(-c2ccccc2)c[nH]1)C(=O)[C@@H](N)Cc1ccc(O)cc1 [Cpd 195] | – | – | – | – | – | 34.00 | 378.00
10 | Cc1cc(C(N)=O)cc(C)c1C[C@H](N)C(=O)N(Cc1cccc(C(=O)O)c1)[C@@H](C)c1nc(-c2ccccc2)c[nH]1 [Cpd 227] | > 10000 | 66.56 | 36.00 | 60.8 | – | – | –
11 | Cc1cc(C(N)=O)cc(C)c1C[C@H](N)C(=O)N(Cc1cccc(-c2nnn[nH]2)c1)[C@@H](C)c1nc(-c2ccccc2)c[nH]1 [Cpd 242] | > 10000 | 91.45 | – | – | – | – | –
12 | Cc1cc(O)cc(C)c1C[C@H](N)C(=O)N(Cc1ccnc2ccccc12)[C@@H](C)c1nc(-c2ccccc2)c[nH]1 [Cpd 246] | 0.3 | 47.01 | 21.30 | 4.5 | – | – | –
13 | Cc1cc(C(N)=O)cc(C)c1C[C@H](N)C(=O)N(Cc1ccc(C(=O)O)o1)[C@@H](C)c1nc(-c2ccccc2)c[nH]1 [Cpd 256] | > 10000 | 89.19 | 29.40 | 13 | – | – | –
14 | COC(=O)c1ccc(CN(C(=O)[C@@H](N)Cc2c(C)cc(C(N)=O)cc2C)[C@@H](C)c2nc(-c3ccccc3)c[nH]2)o1 [Cpd 257] | 7.4 | 48.88 | 10.96 | 3.9 | – | – | –
15 | COc1ccc(CN(C(=O)[C@@H](N)Cc2c(C)cc(O)cc2C)[C@@H](C)c2nc(-c3ccccc3)c[nH]2)cc1C(=O)O [Cpd 260] | > 10000 | 100.97 | 2.89 | 1.5 | – | – | –
16 | COc1ccc(CN(C(=O)[C@@H](N)Cc2c(C)cc(C(N)=O)cc2C)[C@@H](C)c2nc(-c3ccc(I)cc3)c[nH]2)cc1C(=O)O [Cpd 289] | > 10000 | 86.27 | – | – | – | – | –
